Data: ChEMBL document CHEMBL3352057, “Novel fluorinated pyrrolo[1,2-a]pyrazine-2,6-dione derivatives: synthesis and anticonvulsant evaluation in animal models of epilepsy” (Bioorg Med Chem, 2014)
Activity calls are given as the source filed them. No cut-off for these calls is given here.

Tests used:
Mus musculus [1] = assay: Anticonvulsant activity in albino CF1 mouse assessed as protection against 44 mA current-induced seizures at 100 mg/kg, ip measured after 2 hrs; type: functional, organism-based; design: dose 100 mg/kg
Rattus norvegicus [2] = assay: Neurotoxicity in MES Sprague-Dawley rat model at 30 mg/kg, po measured after 0.5 hr; type: toxicity, organism-based; design: dose 30 mg/kg, route oral; settings: in vivo
Rattus norvegicus [3] = assay: Anticonvulsant activity in Sprague-Dawley rat assessed as protection against maximal electroshock-induced seizures at 30 mg/kg, po measured after 0.25 hr; type: functional, organism-based; design: dose 30 mg/kg
Rattus norvegicus [4] = assay: Anticonvulsant activity in Sprague-Dawley rat assessed as protection against maximal electroshock-induced seizures at 30 mg/kg, ip measured after 4 hrs; type: functional, organism-based; design: dose 30 mg/kg
Mus musculus [5] = assay: Anticonvulsant activity in ip dosed albino CF1 mouse assessed as protection against 44 mA current-induced seizures; type: functional
Rattus norvegicus [6] = assay: Anticonvulsant activity in ip dosed hippocampal kindled albino Sprague-Dawley rat seizure model; type: functional; settings: Hippocampus
Mus musculus [7] = assay: Anticonvulsant activity in albino CF1 mouse assessed as protection against 44 mA current-induced seizures at 100 mg/kg, ip measured after 0.25 hr; type: functional, organism-based; design: dose 100 mg/kg
Mus musculus [8] = assay: Anticonvulsant activity in albino CF1 mouse assessed as protection against iv infusion metrazol-induced seizures measured as weight at 24 mg/kg, ip (reference value: 26.75 grams); type: functional
Rattus norvegicus [9] = assay: Anticonvulsant activity in Sprague-Dawley rat assessed as protection against maximal electroshock-induced seizures at 30 mg/kg, po measured after 2 hrs; type: functional, organism-based; design: dose 30 mg/kg
Mus musculus [10] = assay: Anticonvulsant activity in albino CF1 mouse assessed as protection against 44 mA current-induced seizures at 100 mg/kg, ip measured after 4 hrs; type: functional, organism-based; design: dose 100 mg/kg
Mus musculus [11] = assay: Neurotoxicity in 32 mA current-induced seizure albino CF1 mouse model at 100 mg/kg, ip measured after 0.25 hr; type: toxicity, organism-based; design: dose 100 mg/kg, route intraperitoneal; settings: in vivo
Rattus norvegicus [12] = assay: Anticonvulsant activity in Sprague-Dawley rat assessed as protection against maximal electroshock-induced seizures at 30 mg/kg, po measured after 1 hr; type: functional, organism-based; design: dose 30 mg/kg
Mus musculus [13] = assay: Anticonvulsant activity in albino CF1 mouse assessed as protection against iv infusion metrazol-induced seizures measured as clonus at 24 mg/kg, ip (reference value: 31.1 mg/kg); type: functional
Mus musculus [14] = assay: Neurotoxicity in 32 mA current-induced seizure albino CF1 mouse model at 100 mg/kg, ip measured after 1 hr; type: toxicity, organism-based; design: dose 100 mg/kg, route intraperitoneal; settings: in vivo
Rattus norvegicus [15] = assay: Anticonvulsant activity in ip dosed Sprague-Dawley rat assessed as protection against subcutaneous metrazol-induced seizures; type: functional
Rattus norvegicus [16] = assay: Anticonvulsant activity in Sprague-Dawley rat assessed as protection against maximal electroshock-induced seizures at 30 mg/kg, po measured after 4 hrs; type: functional, organism-based; design: dose 30 mg/kg
Mus musculus [17] = assay: Anticonvulsant activity in albino CF1 mouse assessed as protection against 32 mA current-induced seizures at 100 mg/kg, ip measured after 0.25 hr; type: functional, organism-based; design: dose 100 mg/kg
Mus musculus [18] = assay: Anticonvulsant activity in albino CF1 mouse assessed as protection against iv infusion metrazol-induced seizures measured as weight at 79 mg/kg, ip (reference value: 26.75 grams); type: functional
Rattus norvegicus [19] = assay: Neurotoxicity in MES Sprague-Dawley rat model at 30 mg/kg, po measured after 4 hrs; type: toxicity, organism-based; design: dose 30 mg/kg, route oral; settings: in vivo
Rattus norvegicus [20] = assay: Anticonvulsant activity in ip dosed Sprague-Dawley rat assessed as protection against maximal electroshock-induced seizures; type: functional
Mus musculus [21] = assay: Anticonvulsant activity in albino CF1 mouse assessed as protection against iv infusion metrazol-induced seizures measured as time to twitch at 24 mg/kg, ip (reference value: 26.6 seconds); type: functional
Rattus norvegicus [22] = assay: Anticonvulsant activity in Sprague-Dawley rat assessed as protection against maximal electroshock-induced seizures at 30 mg/kg, ip measured after 2 hrs; type: functional, organism-based; design: dose 30 mg/kg
Rattus norvegicus [23] = assay: Anticonvulsant activity in Sprague-Dawley rat assessed as protection against maximal electroshock-induced seizures at 30 mg/kg, ip measured after 0.25 hr; type: functional, organism-based; design: dose 30 mg/kg
Rattus norvegicus [24] = assay: Anticonvulsant activity in ip dosed hippocampal kindled albino Sprague-Dawley rat seizure model assessed as time of rest; type: functional, Hippocampus
Mus musculus [25] = assay: Anticonvulsant activity in ip dosed albino CF1 mouse assessed as protection against maximal electroshock-induced seizures measured as time to peak effect; type: functional
Rattus norvegicus [26] = assay: Neurotoxicity in MES Sprague-Dawley rat model at 30 mg/kg, ip measured after 0.5 hr; type: toxicity, organism-based; design: dose 30 mg/kg, route intraperitoneal; settings: in vivo
Mus musculus [27] = assay: Anticonvulsant activity in ip dosed albino CF1 mouse assessed as protection against maximal electroshock-induced seizures; type: functional
Mus musculus [28] = assay: Anticonvulsant activity in albino CF1 mouse assessed as protection against maximal electroshock-induced seizures at 100 mg/kg, ip measured after 0.25 hr; type: functional, organism-based; design: dose 100 mg/kg
[29] = Neurotoxicity in ip dosed Sprague-Dawley rat; type: toxicity, organism-based; settings: in vivo
Mus musculus [30] = assay: Anticonvulsant activity in albino CF1 mouse assessed as protection against iv infusion metrazol-induced seizures measured as time to clonus at 24 mg/kg, ip (reference value: 29.4 seconds); type: functional

With O=C1NC(=O)[C@@H]2CCCN2[C@H]1c1cccc(OC(F)(F)F)c1 the Activity (Mus musculus [1]) was “inactive”, the Activity (Rattus norvegicus [2]) was “Non-toxic” and the Activity (Rattus norvegicus [3]) was “inactive”. The Activity (Rattus norvegicus [4]) was “inactive”, the ED50 (Mus musculus [5]) was 171 µmol/kg and the ED50 (Rattus norvegicus [6]) was 48 µmol/kg. The Activity (Mus musculus [7]) was “Active”, the Activity (Mus musculus [8]) was 26.8 g and the Activity (Rattus norvegicus [9]) was “inactive”. For the same compound, the Activity (Mus musculus [10]) was “inactive”, the Activity (Mus musculus [11]) was “Toxic” and the Activity (Rattus norvegicus [12]) was “inactive”. For the same compound, the Activity (Mus musculus [13]) was 41.7 mg/kg, the Activity (Mus musculus [14]) was “Non-toxic” and the ED50 (Rattus norvegicus [15]) was 41 µmol/kg. The Activity (Rattus norvegicus [16]) was “inactive”, the Activity (Mus musculus [17]) was “Active” and the Activity (Mus musculus [18]) was 27.6 g. The Activity (Rattus norvegicus [19]) was “Non-toxic”, the ED50 (Rattus norvegicus [20]) was 40 µmol/kg and the Time (Mus musculus [21]) was 33.3 s. For the same compound, the Activity (Rattus norvegicus [22]) was “inactive”, the Activity (Rattus norvegicus [23]) was “Active” and the Time (Rattus norvegicus [24]) was 0.25 h. For the same compound, the Time (Mus musculus [25]) was 0.25 h, the Activity (Rattus norvegicus [26]) was “Non-toxic” and the ED50 (Mus musculus [27]) was 76 µmol/kg. For the same compound, the Activity (Mus musculus [28]) was “Active”, the TD50 [29] was 114 µmol/kg and the Time (Mus musculus [30]) was 39.4 s.
